In the NIST ThermoML archive (doi:10.1021/je049610v):

How the values were obtained:
[1] = xn = mol fraction of the nth substance listed; details: 101 kPa, Liquid
[2] = refractive index (Na D-line) (dimensionless); xn = mol fraction of the nth substance listed; details: 101 kPa, Liquid

COc1ccccc1 [anisole] + OCCCl
x1 = 1
Details	mass density, 298.15 K [kg/m3]	mass density, 303.15 K [kg/m3]	mass density, 308.15 K [kg/m3]	refractive index, 298.15 K	refractive index, 303.15 K	refractive index, 308.15 K	speed of sound, 298.15 K [m/s]	viscosity, 298.15 K [mPa·s]	viscosity, 303.15 K [mPa·s]	viscosity, 308.15 K [mPa·s]
[1]	988.9	984.1	979.4	–	–	–	1410	0.992	0.919	0.853
[2]	–	–	–	1.5148	1.5124	1.5092	–	–	–	–

CCOC(=O)C(=O)OCC [diethyl ethanedioate] + COc1ccccc1
Details	mass density, 298.15 K [kg/m3]	mass density, 303.15 K [kg/m3]	mass density, 308.15 K [kg/m3]	refractive index, 298.15 K	refractive index, 303.15 K	refractive index, 308.15 K	speed of sound, 298.15 K [m/s]	viscosity, 298.15 K [mPa·s]	viscosity, 303.15 K [mPa·s]	viscosity, 308.15 K [mPa·s]
[1], x2 = 0	1072.3	1066.6	1060.7	–	–	–	1267	1.844	1.659	1.508
[1], x2 = 0.1017	1065.8	1060.1	1054.3	–	–	–	1280	1.732	1.578	1.424
[1], x2 = 0.1976	1059.5	1053.8	1048.1	–	–	–	1293	1.64	1.497	1.354
[1], x2 = 0.2978	1052.6	1047.1	1041.4	–	–	–	1307	1.55	1.416	1.282
[1], x2 = 0.3621	1047.7	1042.3	1036.7	–	–	–	1316	1.495	1.367	1.239
[1], x2 = 0.4971	1037.4	1031.9	1026.5	–	–	–	1334	1.38	1.265	1.149
[1], x2 = 0.5975	1029.1	1023.8	1018.5	–	–	–	1348	1.301	1.195	1.089
[1], x2 = 0.6977	1020.1	1014.9	1009.7	–	–	–	1362	1.223	1.126	1.03
[1], x2 = 0.8016	1010.1	1005.3	1000	–	–	–	1377	1.14	1.054	0.968
[1], x2 = 0.9007	999.9	995.4	990.2	–	–	–	1393	1.061	0.985	0.91
[2], x2 = 0	–	–	–	1.4084	1.4061	1.4039	–	–	–	–
[2], x2 = 0.1017	–	–	–	1.4171	1.4148	1.4124	–	–	–	–
[2], x2 = 0.1976	–	–	–	1.4257	1.4232	1.4207	–	–	–	–
[2], x2 = 0.2978	–	–	–	1.435	1.4325	1.43	–	–	–	–
[2], x2 = 0.3621	–	–	–	1.4412	1.4388	1.4362	–	–	–	–
[2], x2 = 0.4971	–	–	–	1.4551	1.4525	1.4499	–	–	–	–
[2], x2 = 0.5975	–	–	–	1.466	1.4634	1.4607	–	–	–	–
[2], x2 = 0.6977	–	–	–	1.4773	1.4746	1.4718	–	–	–	–
[2], x2 = 0.8016	–	–	–	1.4896	1.4868	1.484	–	–	–	–
[2], x2 = 0.9007	–	–	–	1.5021	1.4991	1.4962	–	–	–	–

C[S+](C)[O-] [dimethyl sulfoxide] + COc1ccccc1
x2 = 0
Details	mass density, 298.15 K [kg/m3]	mass density, 303.15 K [kg/m3]	mass density, 308.15 K [kg/m3]	refractive index, 298.15 K	refractive index, 303.15 K	refractive index, 308.15 K	speed of sound, 298.15 K [m/s]	viscosity, 298.15 K [mPa·s]	viscosity, 303.15 K [mPa·s]	viscosity, 308.15 K [mPa·s]
[1]	1095.4	1090.8	1086.2	–	–	–	1493	1.984	1.801	1.651
[2]	–	–	–	1.4768	1.4594	1.4547	–	–	–	–

CN(C)C=O [dimethylformamide] + COc1ccccc1
x2 = 0
Details	mass density, 298.15 K [kg/m3]	mass density, 303.15 K [kg/m3]	mass density, 308.15 K [kg/m3]	refractive index, 298.15 K	refractive index, 303.15 K	refractive index, 308.15 K	speed of sound, 298.15 K [m/s]	viscosity, 298.15 K [mPa·s]	viscosity, 303.15 K [mPa·s]	viscosity, 308.15 K [mPa·s]
[1]	943.9	939.5	935	–	–	–	1462	0.801	0.754	0.711
[2]	–	–	–	1.4288	1.4264	1.4238	–	–	–	–

ClC(Cl)=C(Cl)Cl [tetrachloroethene] + COc1ccccc1
Details	mass density, 298.15 K [kg/m3]	mass density, 303.15 K [kg/m3]	mass density, 308.15 K [kg/m3]	refractive index, 298.15 K	refractive index, 303.15 K	refractive index, 308.15 K	speed of sound, 298.15 K [m/s]	viscosity, 298.15 K [mPa·s]	viscosity, 303.15 K [mPa·s]	viscosity, 308.15 K [mPa·s]
[1], x2 = 0	1614.7	1606.9	1599	–	–	–	1038	0.861	0.817	0.782
[1], x2 = 0.0979	1548.6	1540.9	1533.6	–	–	–	1065	0.859	0.818	0.776
[1], x2 = 0.1962	1483.4	1476.1	1469	–	–	–	1094	0.854	0.813	0.77
[1], x2 = 0.3035	1413.9	1407	1400.4	–	–	–	1127	0.854	0.811	0.767
[1], x2 = 0.4024	1350.9	1343.5	1337.9	–	–	–	1159	0.861	0.815	0.77
[1], x2 = 0.5044	1286.9	1280.5	1274.6	–	–	–	1195	0.874	0.825	0.776
[1], x2 = 0.6045	1225.3	1219.3	1213.5	–	–	–	1232	0.892	0.839	0.787
[1], x2 = 0.7033	1165.1	1159.6	1154.1	–	–	–	1271	0.909	0.855	0.799
[1], x2 = 0.8036	1105	1099.6	1094.5	–	–	–	1314	0.935	0.877	0.817
[1], x2 = 0.8974	1049.2	1044.8	1039.2	–	–	–	1359	0.961	0.898	0.835
[2], x2 = 0	–	–	–	1.5036	1.501	1.498	–	–	–	–
[2], x2 = 0.0979	–	–	–	1.5044	1.5015	1.4986	–	–	–	–
[2], x2 = 0.1962	–	–	–	1.5053	1.5023	1.4993	–	–	–	–
[2], x2 = 0.3035	–	–	–	1.5065	1.5034	1.5004	–	–	–	–
[2], x2 = 0.4024	–	–	–	1.5075	1.5044	1.5014	–	–	–	–
[2], x2 = 0.5044	–	–	–	1.5086	1.5056	1.5026	–	–	–	–
[2], x2 = 0.6045	–	–	–	1.5099	1.5069	1.504	–	–	–	–
[2], x2 = 0.7033	–	–	–	1.5111	1.5083	1.5054	–	–	–	–
[2], x2 = 0.8036	–	–	–	1.5124	1.5096	1.5068	–	–	–	–
[2], x2 = 0.8974	–	–	–	1.5135	1.5101	1.508	–	–	–	–
